Laboratory results published in patent EP0749423B1, “PIPERIDINES AND PYRROLIDINES” (NOVO NORDISK A/S, priority 1994, dated 1995).
Like-named read-outs stand apart in the source and are kept apart here.

What was measured:
[1] = system: cultured liver cells; experiment: Glucose production from cultured rat hepatocytes (basal and glucagon stimulated glycogenolysis); assay type: cell-based; details: Hepatocyte; for activity at 50 µM / activity at 32 µM: 70 min, glucose in medium after 70 minutes; for activity at 50 µM: test compound 50µM; for activity at 32 µM: test compound 32µM
Protocol: During the last 24 hours, the hepatocytes were cultured in the presence of high levels of insulin (5 nM) and glucose (15 mM), which result in the incorporation of glucose into glycogen. Therefore, at the time of the experiment, the cells mimic livers from fed animals. Experiments were initiated after 72 hours of culture by 2 times wash of cells and addition of a 20 mM HEPES experimental buffer including balanced salts, but without glucose. The test compound was added simultaneously with the experimental buffer. To some cultures, glucagon (0.5 nM) was added after 10 minutes in order to stimulate glucose production from liver cells. The glucose released into the media, reflecting the glucose production of the liver cells, was measured 70 minutes after the start of the experiment and standardized to cellular DNA content.

[2] = molecular target: T1, liver α-1,6-glucosidase (Homo sapiens, UniProt P35573); experiment: Glycogen debranching enzyme activity (Brown and Brown method); assay type: biochemical; details: read-out: I.C.50 liver α-1,6-glucosidase
T1 construct: from tissue
T1 sequence (P35573 whole entry): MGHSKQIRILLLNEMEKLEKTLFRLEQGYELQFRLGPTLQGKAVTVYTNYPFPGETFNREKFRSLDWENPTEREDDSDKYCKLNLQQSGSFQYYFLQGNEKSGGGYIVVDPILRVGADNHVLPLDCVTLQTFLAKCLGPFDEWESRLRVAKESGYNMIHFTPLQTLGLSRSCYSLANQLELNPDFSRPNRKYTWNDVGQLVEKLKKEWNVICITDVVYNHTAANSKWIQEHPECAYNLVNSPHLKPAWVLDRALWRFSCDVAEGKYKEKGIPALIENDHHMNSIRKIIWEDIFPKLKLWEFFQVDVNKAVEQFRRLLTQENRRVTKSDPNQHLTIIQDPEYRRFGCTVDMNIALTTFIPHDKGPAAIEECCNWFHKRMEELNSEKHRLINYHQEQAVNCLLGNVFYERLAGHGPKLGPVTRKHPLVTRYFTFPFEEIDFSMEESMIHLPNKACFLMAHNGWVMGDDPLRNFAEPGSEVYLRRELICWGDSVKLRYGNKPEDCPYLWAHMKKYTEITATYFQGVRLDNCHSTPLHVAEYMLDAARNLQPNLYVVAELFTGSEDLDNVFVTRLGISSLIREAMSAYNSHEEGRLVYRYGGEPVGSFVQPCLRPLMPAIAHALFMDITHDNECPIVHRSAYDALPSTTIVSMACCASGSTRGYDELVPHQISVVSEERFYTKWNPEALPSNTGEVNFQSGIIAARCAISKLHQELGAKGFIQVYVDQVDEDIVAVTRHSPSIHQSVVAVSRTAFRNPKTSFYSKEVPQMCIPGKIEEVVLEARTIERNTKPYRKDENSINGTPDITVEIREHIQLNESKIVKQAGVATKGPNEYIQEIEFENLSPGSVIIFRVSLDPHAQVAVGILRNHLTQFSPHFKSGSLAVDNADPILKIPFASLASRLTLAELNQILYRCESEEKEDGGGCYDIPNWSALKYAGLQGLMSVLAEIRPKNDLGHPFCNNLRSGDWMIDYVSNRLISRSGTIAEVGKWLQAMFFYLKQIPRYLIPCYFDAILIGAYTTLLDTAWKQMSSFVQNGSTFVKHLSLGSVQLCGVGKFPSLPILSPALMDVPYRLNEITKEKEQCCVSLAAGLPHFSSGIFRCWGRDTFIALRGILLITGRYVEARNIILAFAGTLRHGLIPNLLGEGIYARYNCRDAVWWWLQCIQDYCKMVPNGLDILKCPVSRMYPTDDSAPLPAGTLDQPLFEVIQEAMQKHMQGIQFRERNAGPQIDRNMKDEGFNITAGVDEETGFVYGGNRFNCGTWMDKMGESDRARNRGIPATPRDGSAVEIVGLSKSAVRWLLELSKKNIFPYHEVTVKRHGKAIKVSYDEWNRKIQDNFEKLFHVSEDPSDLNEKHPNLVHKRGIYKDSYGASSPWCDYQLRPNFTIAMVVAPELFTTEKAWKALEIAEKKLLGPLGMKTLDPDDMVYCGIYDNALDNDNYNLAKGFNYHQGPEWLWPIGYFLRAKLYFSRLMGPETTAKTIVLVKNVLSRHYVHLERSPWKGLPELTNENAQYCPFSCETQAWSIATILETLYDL

[3] = molecular target: Phosphorylase; details: read-out: I.C.50 Phosphorylase; phosphorylase purchased from Sigma or extracted from rat livers
[4] = relative to basal glucose production (no addition with glucagon = 283%), read-out: Glucose production With glucagon (0.5nM)
[5] = basal, without glucagon, read-out: I.C.50 Liver cell glucose production: Basal
[6] = read-out: I.C.50 Liver cell glucose production: Glucagon stimulated

| SMILES | activity at 50 µM ([1]; relative to basal glucose production (no addition = 100 %), read-out: Glucose production Without glucagon) | activity at 50 µM [1, 4] | IC50 [1, 5] | IC50 [1, 6] | IC50 [2] | IC50 [3] | activity at 32 µM ([1]; relative to basal glucose production (no addition = 100 %), standardized to DNA, read-out: Glucose production Without glucagon) | activity at 32 µM [1, 4] |
| --- | --- | --- | --- | --- | --- | --- | --- | --- |
| OC[C@H]1NC[C@H](O)[C@@H](O)[C@@H]1O [1-deoxynojirimycin] | 89% | 237% | > 100000 nM | > 100000 nM | 2400 nM | > 200000 nM |  |  |
| OC[C@H]1CNC[C@@H](O)[C@@H]1O [Example 1, (3R,4R,5R)-3,4-dihydroxy-5-hydroxymethylpiperidine] |  |  | 1300 nM | 1600 nM | 77000 nM |  | 17% | 32% |
